Patent publication US20260199240A1, “BIOMEDICAL APPLICATIONS OF AZOBENZENE-BASED LIPIDOIDS” (Trustees of Tufts College, priority 2022, published 2026)

Tests used:
[1] = tested on: 4T1 tumor cells; assay: Cell cytotoxicity using CCK-8 assay; type: cell-based, mouse
Protocol: In vitro cytotoxicity was assessed by the standard CCK-8 assay. To test the cytotoxicity of DSPC-Azo@GOx with or without UV/Vis light irradiation, 4T1 tumor cells were seeded in the basolateral chamber of a 24-well transwell plate at a density of 10^5 cells per well and cultured in 5% CO2 at 37° C. for overnight (16 h). Then, DSPC-Azo@GOx was added to the upper chamber. Then, the samples were irradiated using the UV/Vis light (irradiated for 5 min every 8 hours). After three irradiation, the cell viability was measured using CCK-8 kit according to the manufacturer's instruction.

[2] = helper lipid; cited from earlier work
[3] = Photoisomerization of Azo lipidoids in DMSO (UV-Vis absorption); type: physicochemical; settings: for UV irradiation time until spectral changes level off (photostationary state): UV 365 nm, 5.40 mW/cm^2; for additional Vis irradiation time that reverses the spectral change: Vis >400 nm, 20 mW/cm^2
Protocol: Azo lipidoid was prepared as 50 μM solution in anhydrous dimethyl sulfoxide (DMSO). The sample was irradiated with UV (365 nm for 6 s) and Vis light (>400 nm for 6 s), respectively. The power densities for 365 and >400 nm was 5.40 and 20 mW/cm^2, respectively.
SAzo lipidoid was prepared as 30 μM solution in anhydrous dimethyl sulfoxide (DMSO). TAzo lipidoid was prepared as 15 μM solution in DMSO. These samples were irradiated with UV (365 nm for 6 s) and Vis light (>400 nm for 6 s), respectively. The power densities for 365 and >400 nm are 5.40 and 20 mW/cm^2, respectively.

[4] = Critical micelle concentration in aqueous solution; type: physicochemical

For Glucose Oxidase [GOx], the “cell viability with versus without UV/Vis light treatment” value ([1]; dialysis setup, 24 h) was “no significant differences in cell viabilities”.

In the case of CCCCCCCCCCCCCCCC(=O)OC[C@H](COP(=O)([O-])OCC[N+](C)(C)C)OC(=O)CCCCCCCCCCCCCCC [DPPC, dipalmitoylphosphatidylcholine], the “Tm (phase transition temperature)” value [2] is listed as 41.3 °C and the headgroup surface area [2] is listed as ~ 0.665 nm^2.

With CCCCCCCCCCCC(=O)Nc1ccc(/N=N/c2ccc(C[N+](C)(C)C)cc2)cc1 [Azo lipidoid] the “UV irradiation time until spectral changes level off (photostationary state)” value [3] was 6 s, the “additional Vis irradiation time that reverses the spectral change” value [3] was 6 s and the “critical micelle concentration (CMC)” value [4] was “≈ 30 μM”. For the same compound, the “dose dependent cell viability” value ([1]; 4T1 cells, 24 h incubation) was “relatively good biocompatibility”.

In the case of CCCCCCCCCCCCCC(=O)OC[C@H](COP(=O)([O-])OCC[N+](C)(C)C)OC(=O)CCCCCCCCCCCCC [DMPC, dimyristoylphosphatidylcholine], the “Tm (phase transition temperature)” value [2] is listed as 24.1 °C and the headgroup surface area [2] is listed as ~ 0.665 nm^2.

For CCCCCCCCCCCCCCCCCC(=O)OC[C@H](COP(=O)([O-])OCC[N+](C)(C)C)OC(=O)CCCCCCCCCCCCCCCCC [DSPC, distearoylphosphatidylcholine], the “Tm (phase transition temperature)” value [2] is given as 55 °C and the headgroup surface area [2] is given as ~ 0.430 nm^2.

With CCCCCCCCCCCC(=O)Nc1ccc(/N=N/c2ccc(C[N+](C)(C)CC[N+](C)(C)Cc3ccc(/N=N/c4ccc(NC(=O)CCCCCCCCCCC)cc4)cc3)cc2)cc1 [TAzo lipidoid] the “UV irradiation time until spectral changes level off (photostationary state)” value [3] was 6 s and the “additional Vis irradiation time that reverses the spectral change” value [3] was 6 s.
